Assay results from patent US11442059B2, “Method for treating a chronic itch condition by administering small molecule MrgprX4 antagonists” (The Johns Hopkins University, priority 2017, dated 2022).
Blank lines part the entries; values can stand above or below the molecule they belong to. Non-standard residues stand in square brackets, D forms with d. Residues, ends and D or L forms follow the SMILES beside them. *: point of attachment. Boc = CC(C)(C)OC(=O)*; OBn = c1ccc(CO*)cc1; For = O=C*

Experiments:
[1] = system: mice
[2] = target: T1, MRGPRX4 (Homo sapiens, UniProt Q96LA9); assay: Microscale thermophoresis binding assay, MRGPRX4; design: expressed in transfected cells; whole cells or crude membrane fraction; conditions: FIG. 24J
Method: (§1) Binding isotherms for MRGPRA1, MRGPRX4, and MRGRPC11 towards various ligands were determined by microscale thermophoresis with the NanoTemper monolith NT.115 instrument^27. Ligands were pre-incubated with 10 μM of the GFP-tagged receptor of interest for 5 minutes at room temperature in binding buffer (20 mM Tris and 150 mM NaCl at pH 8.8). Receptors were crudely purified as a membrane fraction from cells stably expressing the receptor^45. Haem metabolites were freshly dissolved in 0.1 M NaOH in dim light and then diluted into assay buffer. Lyophilized BAMS-22 was dissolved in binding buffer. The pH of each ligand was evaluated prior to incubation with a receptor. Samples were loaded into NT.115 Hydrophobic-Treated Capillaries from NanoTemper. Microscale thermophoretic experiments were executed using 20% LED power and 15% MST power. KDs were calculated using the law of mass action with data from three independent experiments. Binding between bilirubin and receptors was evaluated purely thermophoretically, whereas binding between BAMS-22 and MRGPRC11 was evaluated by T-Jump. Samples with dramatic deviations in initial fluorescence were excluded.

[3] = target: T2, MrgprA1 (Mus musculus, UniProt Q91WW5); assay: Microscale thermophoresis binding assay, MRGPRA1; conditions: FIG. 24E
T2 construct: expressed in transfected cells; whole cells or crude membrane fraction
T2 sequence (Q91WW5 1-304): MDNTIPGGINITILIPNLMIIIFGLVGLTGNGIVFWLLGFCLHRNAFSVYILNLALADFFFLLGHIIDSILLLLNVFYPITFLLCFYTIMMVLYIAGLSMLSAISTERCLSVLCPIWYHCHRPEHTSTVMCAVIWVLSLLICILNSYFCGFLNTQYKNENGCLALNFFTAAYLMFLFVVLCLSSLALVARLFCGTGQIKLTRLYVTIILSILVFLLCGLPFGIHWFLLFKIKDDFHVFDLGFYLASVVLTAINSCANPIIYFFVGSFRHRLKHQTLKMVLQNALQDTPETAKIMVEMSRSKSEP
Method: as §1

[4] = target: T2, MrgprA1; assay: Fura 2-AM calcium imaging, EC50 and IC50 determinations, MRGPRA1 HEK293 cells; format: cell-based; conditions: for activation of MRGPRA1-expressing cells (calcium): concentration-Ca2+ response, FIG. 24D
Method: (§2) Cells were imaged in calcium imaging buffer (CIB; 10 mM HEPES, 1.2 mM NaHCO3, 130 mM NaCl, 3 mM KCl, 2.5 mM CaCl2, 0.6 mM MgCl2, 20 mM glucose, and 20 mM sucrose at pH 7.4 and 290-300 mOsm). To monitor changes in intracellular [Ca^2+] ([Ca^2+]i), cells were loaded with either Fura 2-AM (HEK293 cells) or Fluo 4-AM (DRG neurons and mast cells) for 30 min in the dark at 37° C. in CIB just prior to imaging. With Fura 2-AM, emission at 510 nm was monitored from excitation at both 340 nm and 380 nm. With Fluo 4-AM, emission at 520 nm was monitored from excitation at 488 nm. Cells were identified as responding if the intracellular [Ca^2+] rose by either 50% compared to baseline or 50% compared to the [Ca^2+]i change assayed during addition of 50 mM KCl (neurons only). Damaged, detached, high-baseline, and motion-activated cells were excluded from analysis.
(§3) In initial screens, HEK293 cells stably expressing the murine G-protein alpha-subunit Gα15, a unique Gα protein that non-selectively couples a large variety of GPCRs to phospholipase C^30, were plated on poly-D-lysine-coated coverslips and transiently transfected with constructs encoding the MRGRPR of interest. 12-24 h later, cells were loaded with the Fura 2-AM. Unless otherwise specified, compounds were perfused into the imaging chamber for approximately thirty seconds after a baseline period was established. Response was then monitored at 5 s intervals for an additional 60 s.
(§4) HEK293 cells stably expressing either MRGPRA1, MRGPRX4, and MRGRPC11 were seeded in poly-D-lysine-coated 96-well plates at 10,000 cells/well. Cells were loaded with Fura 2-AM, washed twice, and maintained in CIB. Haem metabolites were freshly dissolved in DMSO in dim light and then diluted into a buffer comprised of 20 mM Tris and 150 mM NaCl at pH 8.8. Potential changes in pH were evaluated prior to each experiment. EC50 values were determined from dose-responses performed in triplicate, repeated 2-4 times. To determine potential antagonism by QWF against bilirubin, cells were treated with varying doses of QWF for 1 min in CIB prior to application of agonist.

[5] = target: T1, MRGPRX4; assay: Fura 2-AM calcium imaging, EC50 determinations, MRGPRX4 HEK293 cells; format: cell-based; design: expressed in transfected cells; whole cells or crude membrane fraction; conditions: for activation of MRGPRX4-expressing cells (calcium): concentration-Ca2+ response, FIG. 24I
Method: as §2, §3
as §4, with “To determine potential antagonism by QWF against bilirubin, cells were treated with varying doses of QWF for 1 min in CIB prior to application of agonist.” left out

[6] = system: mice; assay: Acute itch behaviour after injection (scratching bouts); format: in vivo, mouse
[7] = target: T2, MrgprA1; assay: FLIPR calcium assay (Flexstation3), HEK cells stably expressing MrgprA1; format: cell-based; conditions: MrgprA1 HEK cells, FIG. 17B
Method: EC50s were calculated using HEK cells stably expressing either MrgprA1 or MrgprX4. Cells were loaded with FLIPR calcium imaging dye, and a Flexstation3 machine (Molecular Devices) was used for reading changes in fluorescence. Wells were run in triplicate, and all values from each plate were normalized to the highest responding well. […] The x-axis depicts a modified logarithmic scale. […] FIG. 18B is a graph depicting the EC50 for MrgprX4 for bilirubin is approximately 3 μM.

[8] = target: T1, MRGPRX4; assay: Ca2+ imaging / EC50 determination in HEK293 cells expressing MRGPRX4; format: cell-based; design: expressed in transfected cells; conditions: Mrgprs individually expressed in HEK293 cells
Method: (§5) Lamotrigine (LTG), allopurinol, carbamazepine and oxcarbazepine (all from Sigma) were prepared fresh on the day of the experiment. These drugs were dissolved into dimethyl sulfoxide (DMSO) first, and then were diluted at least 10000× into calcium imaging buffer before use. The final concentrations of drugs for each experiment were indicated in the corresponding figure legend.
(§6) In initial experiments, HEK293 cells were plated on 100 μg/ml poly-D-lysine coated glass cover slips, and transiently transfected with vector containing Mrgprs gene, after 24-48 hours of culture, cells were loaded with Fura 2-acetomethoxy ester calcium indicator (0.5 μM, Molecular Probes) along with pluronic F-127 dispersing agent (0.1%, Molecular Probes) for 30 minutes in the dark at 37° C., then washed with calcium imaging buffer (CIB; NaCl 125 mM, KCl 3 mM, CaCl2 2.5 mM, MgCl2 0.6 mM, HEPES 10 mM, glucose 20 mM, NaHCO3 1.2 mM, sucrose 20 mM, brought to pH 7.4 with NaOH). Drugs were added to Fura 2-loaded cells and intracellular free calcium was measured using 340 nm and 380 nm excitation wavelengths with emission measured at 520 nm with a microscope based imaging system (Nikon Eclipse TE200). Changes in emission fluorescence ratios at 340/380 nm excitation were continuously monitored at 1 second intervals. Later, experiments were performed using Mrgpra1-GFP, Mrgprc11-GFP and MRGPRX4-GFP stable cell lines to confirm the findings obtained from the transiently expressing cells.
(§7) Mrgpra1 or both wild-type and mutant MRGPRX4 stably expressed HEK cells were plated overnight in 100 μl culture media on 96-well plates. […] After 1 hour of incubation at 37° C., cells were allowed to recover for 10 minutes in the dark at room temperature prior to performing intracellular calcium mobilization assay in a FLEXSTATION® multi-mode plate reader (Molecular Devices). […] Responses were determined by subtracting the minimum signal (at the basal level before adding the drug) from the maximum signal (obtained after stimulating with the drug). […]

[9] = target: T3, mouse Mrgpra1 (Mus musculus, UniProt Q91WW5); assay: Ca2+ imaging / EC50 determination in HEK293 cells expressing Mrgpra1; format: cell-based; conditions: Mrgprs individually expressed in HEK293 cells
T3 construct: expressed in transfected cells; host or cells: HEK293
T3 sequence (Q91WW5 1-304): T2 sequence (Q91WW5 1-304)
Method: as §5, §6, §7

[10] = system: 129S1/SvImJ mice; assay: SJS/TEN mouse model (daily oral gavage of causative drug); format: in vivo; conditions: mouse, in vivo
Method: Eight-to-ten week old male mice were orally gavaged with either causative drugs (LTG, allopurinol, oxcarbazepine) suspended in saline or saline once daily. The dosage was based on milligrams per kilogram of animal's body weight as indicated (for example, LTG 50 mg kg^−1 body weight). Skin, eyes, and mucosa, survival, body weight, physical and gross appearances (particularly on the eyes, mucosa and skins) were monitored every day.
The animals were deeply anesthetized with pentobarbital and transcardially perfused with 20 ml 0.1 M cold PBS (pH 7.4) followed with 25 ml of cold 4% paraformaldehyde (PFA). Paw skin, eyelid, spleen, lymph nodes were dissected out. postfixed in 4% PFA for more than two hours, and cryoprotected in a 20% followed by 30% sucrose solution for 24 hours each at 4° C. Tissue samples were embedded in the optimal cutting temperature (OCT) and frozen before being serially cut into 20 μm sections and placed onto slides. Hematoxylin and eosin (H&E) staining was performed using standard procedures according to the manufacturer's instruction VITROVIEW™ H&E Stain Kit). To quantify amount of apoptotic cells, terminal deoxynucleotidyl transferase dUTP nick end labeling (TUNEL) assay, a method for detecting DNA fragmentation that results from apoptotic cells by labeling the terminal end of nucleic acids, was performed by following the protocol of Apo-BrdU DNA Fragmentation Assay Kit (Biovision). To estimate the total cell number in tissue, all nuclei were stained with propidium iodide. Digital photographs were captured under confocal fluorescent microscopy at x200 magnification (Zeiss LSM 700). The number of TUNEL-positive nuclei were counted and reported as a percentage over the number of total nuclei observed in the skin's epidermis layer.

[11] = target: human MRGPRX3 (Mas-related G-protein coupled receptor member X3) (human) (UniProt Q96LB0); assay: cell-based or functional assay
[12] = target: T4, murine MRGPRA1 stably expressed in HEK293 cells (GFP-tagged, pEGFP-N1) (mouse, UniProt Q91WW5 1-304); assay: cell-based or functional assay
T4 sequence (looked up): T2 sequence (Q91WW5 1-304)

[13] = 10 μM pre-incubated 30 minutes, 50 μM bilirubin

T1 sequence (Q96LA9 whole entry): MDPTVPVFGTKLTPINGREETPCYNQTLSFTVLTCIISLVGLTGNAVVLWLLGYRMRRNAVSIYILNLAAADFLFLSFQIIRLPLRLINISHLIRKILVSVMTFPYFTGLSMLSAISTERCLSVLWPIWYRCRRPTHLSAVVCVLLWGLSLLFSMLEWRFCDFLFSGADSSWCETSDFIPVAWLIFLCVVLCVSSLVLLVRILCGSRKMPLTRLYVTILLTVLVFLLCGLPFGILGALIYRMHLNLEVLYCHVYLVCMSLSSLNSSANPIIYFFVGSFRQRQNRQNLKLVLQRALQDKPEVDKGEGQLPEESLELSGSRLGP
Sequence of human MRGPRX3 (Mas-related G-protein coupled receptor member X3) (human) (Q96LB0 whole entry): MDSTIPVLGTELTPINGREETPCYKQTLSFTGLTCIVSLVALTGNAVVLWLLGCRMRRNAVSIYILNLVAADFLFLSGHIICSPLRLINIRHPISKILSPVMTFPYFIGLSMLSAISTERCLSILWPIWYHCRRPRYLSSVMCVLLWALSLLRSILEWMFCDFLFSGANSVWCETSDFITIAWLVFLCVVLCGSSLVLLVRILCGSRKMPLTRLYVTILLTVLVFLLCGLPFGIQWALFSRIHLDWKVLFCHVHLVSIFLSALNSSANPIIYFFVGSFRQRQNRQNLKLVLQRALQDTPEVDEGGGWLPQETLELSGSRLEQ

binding to MRGPRX4 [2]: lower affinities compared to bilirubin
binding to MRGPRA1 [3]: lower affinities compared to bilirubin
activation of MRGPRA1-expressing cells (calcium) [4]: activated
activation of MRGPRX4-expressing cells (calcium) [5]: activated
Molecule: C=CC1=C(C)/C(=C/c2[nH]c(Cc3[nH]c(/C=C4\NC(=O)C(C)=C4C=C)c(C)c3CCC(=O)NCCS(=O)(=O)O)c(CCC(=O)NCCS(=O)(=O)O)c2C)NC1=O [Conjugated bilirubin, bilirubin ditaurate]

binding to MRGPRX4 [2]: did not bind
binding to MRGPRA1 [3]: did not bind
activation of MRGPRA1-expressing cells (calcium) [4]: failed to activate
activation of MRGPRX4-expressing cells (calcium) [5]: no effect
Molecule: C=CC1=C(C)c2cc3[n-]c(cc4nc(cc5[n-]c(cc1n2)c(C)c5C=C)C(C)=C4CCC(=O)O)c(CCC(=O)O)c3C.[Cl-].[Fe+3] [haemin]
scratching / itch elicited by injection ([6]; WT mice): did not induce scratching

activation of human MRGPRX4 (Ca2+ imaging) [8]: specifically activated
activation of mouse Mrgpra1 (Ca2+ imaging) [9]: specifically activated
eye manifestation [10]: can also induce eye manifestation
Molecule: NC(=O)N1c2ccccc2CC(=O)c2ccccc21 [oxcarbazepine]

percentage of primary human keratinocytes that responded to hBD3 (Ca^2+), after siRNA knock-down of MRGPRX3 [11]: < 20%
percentage of primary human keratinocytes that responded to hBD3 (Ca^2+), before MRGPRX3 knock-down [11]: > 80%
Molecule: synthetic human Beta-defensin 3 (hBD3) (from UniProt P81534 23-67) (peptide)

IC50 for inhibition of bilirubin-induced Ca^2+ signal in MRGPRA1-expressing HEK cells (200 µM bilirubin) [12]: 2.9 µM
Molecule: Boc-Gln-[dW](For)-Phe-OBn [BOC-GLN-D-(FORMYL)TRP-PHE-BENZYLESTER (QWF)]

The next lines start with the molecule.

Molecule: S=C=Nc1cccc2ccccc12 [ANIT, α-naphthyl isothiocyanate]
reduction in scratching bouts, Cluster KO versus WT littermates ([1]; 25 mg/kg ANIT per os daily): ~46%

Molecule: CC(C)(C)OC(=O)N[C@@H](CCC(N)=O)C(=O)N[C@H](Cc1cn(C=O)c2ccccc12)C(=O)N[C@@H](Cc1ccccc1)C(=O)OCc1ccccc1 [QWF, BOC-GLN-D-(FORMYL)TRP-PHE-BENZYLESTER] (Boc-Gln-[dW](For)-Phe-OBn)
effect on pruritus associated with bilirubin ([6]; 0.25 mg/kg co-injected with bilirubin): significantly alleviated pruritus
effect on chloroquine-MRGPRA3 associated itch ([6]; co-injected with chloroquine): did not attenuate
scratching versus vehicle-treated animals ([1]; ANIT-dosed WT animals, 1 mg/kg i.p. thirty minutes prior to behavioral analysis): scratched significantly less
plasma levels of total bilirubin, AST, ALT, or ALP ([1]; mouse, in vivo, ip, 1 mg/kg): did not change

Molecule: COc1ccc2c(c1)CC[C@@H]1[C@@H]2CC[C@]2(C)[C@@H](NCCCCCCN3C(=O)C=CC3=O)CC[C@@H]12 [U73122]
effect on bilirubin-induced calcium responses, MRGPRA1 [4, 13]: abolished
effect on bilirubin calcium influx [7]: blocked the calcium influx
effect on bilirubin-induced calcium responses, MRGPRX4 [5, 13]: inhibited
